# Source: patent US7612084B2, “Amine derivatives for the treatment of asthma and COPD” (Pfizer Inc, priority 2006, dated 2009)
# Key:
# [1] = molecular target: human adrenergic B2 receptor (Homo sapiens, UniProt P07550); assay: Whole cell luciferase reporter assay in CHO cells expressing the hB2 receptor (agonist potency); type: cell-based; settings: 4 h incubation, read-out: EC50 - beta2
# Protocol: Functional Assessment of Agonist Potency and Efficacy Using a Whole Cell Luciferase Reporter Assay in CHO Cells Expressing the hB2 Receptor.
# CHO (Chinese Hamster Ovary) cells recombinantly expressing the human adrenergic B2 receptor and transfected with a luciferase enzyme reporter gene were maintained in growth media composed of F12:DMEM (Sigma D6421) containing 10% Foetal Bovine Serum (FBS: Sigma F03921) 10 μg/ml puromycin (Sigma N277698), 0.5 mg/ml Geneticin G418 (Sigma G7034) and 2 mM L-glutamine (Sigma G7513). The cells were kept in sterile conditions at 37° C., in an atmosphere containing 5% CO2.
# hB2 Luciferase Assay Protocol
# Cells were harvested for assay when they reached 80-90% confluency using enzyme free cell Dissociation Solution (Life technologies 13151-014) incubated with the cells for 5 min at 37° C. in an atmosphere containing 5% CO2. Detached cells were collected in warmed growth media (composition described above), and re-suspended in assay media (F12:DMEM (Sigma D6421) containing 1% Foetal Bovine Serum (FBS: Sigma F03921), 10 μg/ml puromycin (Sigma N277698), 0.5 mg/ml Geneticin G418 (Sigma G7034) and 2 mM L-glutamine (Sigma G7513))to give a viable cell concentration of 1×10^6 cells/ml. 10 ul of this suspension was added to each well of a tissue culture treated low volume 384 well plate (Greiner788073) and the plate incubated in an atmosphere containing 5% CO2 at 37° C. for 2 h. Concentration ranges of test compounds were prepared in phosphate Buffered Saline containing 0.05% pluronic-F127 (Sigma P2443) and 2.5% DMSO. 2 μl of each test concentration were added to the appropriate 384 plate well and returned to the incubator for a further 4 h. At the end of the incubation period 4 μl of Steady-Glo reagent (Steady-Glo Luciferase assay system (Promega E2520) was added to each well and the plate read immediately in a Leadseeker Plate reader (Amersham Bioscience) using a 660 nm filter. Concentration effect curves were plotted and EC50 values generated using a 4-parameter sigmoid fit using an in-house data analysis programme. Isoprenaline was run in every assay as a reference standard.
# [2] = molecular target: human muscarinic M3 receptor (Homo sapiens, UniProt P20309); assay: Whole cell β-lactamase reporter assay in CHO cells expressing the hM3 receptor (antagonist activity); type: cell-based; settings: 80 nM carbamyl choline, IC50 converted to Ki by Cheng-Prusoff
# Sequence of human muscarinic M3 receptor (P20309 whole entry): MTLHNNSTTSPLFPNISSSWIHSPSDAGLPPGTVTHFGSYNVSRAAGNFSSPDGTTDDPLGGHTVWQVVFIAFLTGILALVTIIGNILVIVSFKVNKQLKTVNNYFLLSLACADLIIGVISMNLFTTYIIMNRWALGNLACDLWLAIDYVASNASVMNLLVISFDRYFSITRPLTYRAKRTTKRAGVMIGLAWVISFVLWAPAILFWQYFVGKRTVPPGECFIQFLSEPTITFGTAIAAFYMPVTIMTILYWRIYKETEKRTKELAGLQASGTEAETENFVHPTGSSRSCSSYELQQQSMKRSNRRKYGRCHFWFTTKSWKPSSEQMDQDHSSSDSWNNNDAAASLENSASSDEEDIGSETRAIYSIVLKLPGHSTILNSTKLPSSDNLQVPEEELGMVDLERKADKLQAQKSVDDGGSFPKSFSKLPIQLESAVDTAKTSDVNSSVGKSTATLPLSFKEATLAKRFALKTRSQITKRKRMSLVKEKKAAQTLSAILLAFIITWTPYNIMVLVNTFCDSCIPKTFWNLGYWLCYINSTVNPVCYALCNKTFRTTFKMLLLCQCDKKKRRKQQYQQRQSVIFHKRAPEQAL
# Protocol: Functional Assessment of Antagonist Activity Using a Whole Cell β-Lactamase Reporter Assay in CHO Cells Expressing the hM3 Receptor.
# CHO (Chinese Hamster Ovary) cells recombinantly expressing the human muscarinic M3 receptor were transfected with the NFAT_β-Lac_Zeo plasmid. Cells were grown in DMEM with Glutamax-1, supplemented with 25 mM HEPES(Life Technologies 32430-027), containing 10% FCS (Foetal Calf Serum; Sigma F-7524), […] Sodium pyruvate (Sigma S-8636), NEAA (non-Essential Amino Acids; Invitrogen 11140-035) and […] Zeocin (Invitrogen R250-01).
# Cells were harvested for assay when they reached 80-90% confluency using enzyme free cell Dissociation Solution (Life technologies 13151-014) incubated with the cells for 5 min at 37° C. in an atmosphere containing 5% CO2. Detached cells were collected in warmed growth media and centrifuged at 200 rpm for 10 min, washed in PBS (Phosphate Buffered Saline; Life Technologies 14190-094) and centrifuged again as just described. The cells were re-suspended at 2×10^5 cells/ml in growth medium (composition as described above). 20 μl of this cell suspension was added to each well of a 384 well black clear bottomed plate (Greiner Bio One 781091-PFI). The assay buffer used was PBS supplemented with 0.05% Pluronic F-127 (Sigma 9003-11-6) and 2.5% DMSO. Muscarinic M3 receptor signalling was stimulated using 80 nM carbamyl choline (Aldrich N240-9) incubated with the cells for 4 h at 37° C./5% CO2 and monitored at the end of the incubation period using a Tecan SpectraFluor+plate reader (λ−excitation 405 nm, emission 450 nm and 503 nm). Compounds under test were added to the assay at the beginning of the 4 h incubation period and compound activity measured as the concentration dependent inhibition of the carbamyl choline induced signal. Inhibition curves were plotted and IC50 values generated using a 4-parameter sigmoid fit and converted to Ki values using the Cheng-Prusoff correction and the KD value for carbamyl choline in the assay.
# Sequence of human adrenergic B2 receptor (P07550 whole entry): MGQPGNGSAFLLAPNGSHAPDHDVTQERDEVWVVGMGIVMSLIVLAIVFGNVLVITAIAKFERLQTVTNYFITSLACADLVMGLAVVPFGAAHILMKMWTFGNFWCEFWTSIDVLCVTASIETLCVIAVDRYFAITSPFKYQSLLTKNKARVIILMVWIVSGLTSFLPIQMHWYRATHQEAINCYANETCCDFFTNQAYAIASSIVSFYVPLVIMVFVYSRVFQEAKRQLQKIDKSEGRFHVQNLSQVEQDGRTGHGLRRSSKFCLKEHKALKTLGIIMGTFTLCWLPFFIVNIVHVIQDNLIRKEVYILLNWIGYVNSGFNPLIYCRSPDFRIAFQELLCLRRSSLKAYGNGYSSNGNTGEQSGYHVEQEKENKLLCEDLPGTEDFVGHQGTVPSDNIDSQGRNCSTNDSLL
EC50 [1] [nM],Ki [2] [nM],Compound
2.2,1.5,"CC(C)N(CC[C@H](c1ccccc1)c1cc(CCOc2cccc(CCNC[C@H](O)c3ccc(O)c(CO)c3)c2)ccc1O)C(C)C [Example 11, 2-[(1R)-3-(diisopropylamino)-1-phenylpropyl]-4-(2-{3-[2-({(2R)-2-hydroxy-2-[4-hydroxy-3-(hydroxymethyl)phenyl]ethyl}amino)ethyl]phenoxy}ethyl)phenol]"
0.26,1.1,"CC(C)N(CC[C@H](c1ccccc1)c1cc(CCOc2cccc(CCNC[C@H](O)c3ccc(O)c(NS(C)(=O)=O)c3)c2)ccc1O)C(C)C [Example 10, N-{5-[(1R)-2-({2-[3-(2-{3-[(1R)-3-(diisopropylamino)-1-phenylpropyl]-4-hydroxyphenyl}ethoxy)phenyl]ethyl}amino)-1-hydroxyethyl]-2-hydroxyphenyl}methanesulfonamide]"
